Calls of active or inactive are those of the source. The calls are words filed in the database; no cut-off is given here.

This is an account of results in ChEMBL document CHEMBL5046257, “Synthesis and Evaluation of Bakuchiol Derivatives as Potent Anti-inflammatory Agents in Vitro and in Vivo” (J Nat Prod, 2022).

Data set [1] in a line: Cytotoxicity against mouse RAW 264.7 cells assessed as decreased cell viability measured after 24 hrs by MTT assay. It counts as toxicity, cell-based, RAW264.7. In general terms: Tetrazolium dyes change colour on reduction, which living cells bring about.
Data set [2] has as its system RAW264.7. Nature of the data set: Antiinflammatory activity in mouse RAW264.7 cells assessed as downregulation of LPS-induced JNK phosphorylation at 5 to 10 uM for 1 hrs followed by LPS stimulation for 23 hrs by Western blot analysis. The note with it: dose 5-10 µM, time 24.0 hrs. It is filed as functional, cell-based. (A western blot detects proteins with antibodies after separation by electrophoresis.)

Data set [3] has as its system RAW264.7. Nature of the data set: Antiinflammatory activity in mouse RAW264.7 cells assessed as downregulation of LPS-induced MAPK phosphorylation at 5 to 10 uM for 1 hrs followed by LPS stimulation for 23 hrs by Western blot analysis. It is filed as functional, cell-based. The note with it: dose 5-10 µM, time 24.0 hrs.
Data set [4] relates to RAW264.7. Nature of the data set: Antiinflammatory activity in mouse RAW 264.7 cells assessed as inhibition of LPS-induced IL-6 production at 20 uM for 1 hrs followed by LPS stimulation for 23 hrs by ELISA. It counts as functional, cell-based. The note with it: time 24.0 hrs. Background: ELISA stands for enzyme-linked immunosorbent assay.
Data set [5] relates to RAW264.7. The data set is described as follows: Antiinflammatory activity in mouse RAW 264.7 cells assessed as inhibition of LPS-induced NO production at 20 uM for 1 hrs pretreatment followed by LPS stimulation for 23 hrs by Griess reagent assay. It counts as functional, cell-based. The note with it: time 24.0 hrs.
The subject of data set [6] is RAW264.7. The data set is described as follows: Antiinflammatory activity in mouse RAW 264.7 cells assessed as inhibition of LPS-induced TNF-alpha production at 20 uM for 1 hrs followed by LPS stimulation for 23 hrs by ELISA. The settings on record: time 24.0 hrs. It is filed as functional, cell-based.
Data set [7] relates to RAW264.7. Nature of the data set: Antiinflammatory activity in mouse RAW 264.7 cells assessed as inhibition of LPS-induced IL-6 production at 5 to 10 uM for 1 hrs followed by LPS stimulation for 23 hrs by ELISA. It is filed as functional, cell-based. The settings on record: dose 5-10 µM, time 24.0 hrs.
Data set [8] relates to RAW264.7. Nature of the data set: Antiinflammatory activity in mouse RAW 264.7 cells assessed as inhibition of LPS-induced TNF-alpha production at 5 to 10 uM for 1 hrs followed by LPS stimulation for 23 hrs by ELISA. It is filed as functional, cell-based. The settings on record: dose 5-10 µM, time 24.0 hrs.
For data set [9], the system named is RAW264.7. Nature of the data set: Antiinflammatory activity against mouse RAW264.7 cells assessed as inhibition of LPS-induced COX2 expression at 5 to 10 uM for 1 hrs followed by LPS stimulation for 23 hrs by western blot analysis. It counts as functional, cell-based. The note with it: dose 5-10 µM, time 24.0 hrs.
Data set [10] concerns RAW264.7. Nature of the data set: Antiinflammatory activity against mouse RAW264.7 cells assessed as inhibition of LPS-induced iNOS expression at 5 to 10 uM for 1 hrs followed by LPS stimulation for 23 hrs by western blot analysis. The note with it: dose 5-10 µM, time 24.0 hrs. It counts as functional, cell-based.
The test system of data set [11] is RAW264.7. The data set is described as follows: Antiinflammatory activity against mouse RAW264.7 cells assessed as inhibition of LPS-induced COX2 expression at 10 uM for 1 hrs followed by LPS stimulation for 23 hrs by western blot analysis. It counts as functional, cell-based. The settings on record: time 24.0 hrs.
The subject of data set [12] is RAW264.7. The data set is described as follows: Antiinflammatory activity against mouse RAW264.7 cells assessed as inhibition of LPS-induced iNOS expression at 10 uM for 1 hrs followed by LPS stimulation for 23 hrs by western blot analysis. The note with it: time 24.0 hrs. It is filed as functional, cell-based.
Data set [13] has as its system RAW264.7. The data set is described as follows: Antiinflammatory activity in mouse RAW264.7 cells assessed as inhibition of LPS-induced ROS production at 5 to 10 uM for 1 hrs followed by LPS stimulation for 23 hrs by DCFH-DA staining based fluorescence assay. It is filed as functional, cell-based. The note with it: dose 5-10 µM, time 24.0 hrs.
Data set [14] concerns RAW264.7. The data set is described as follows: Antiinflammatory activity in mouse RAW264.7 cells assessed as upregulation of LPS-induced NRF2 expression at 5 to 10 uM for 1 hrs followed by LPS stimulation for 23 hrs by Western blot analysis. The note with it: dose 5-10 µM, time 24.0 hrs. It is filed as functional, cell-based.
In data set [15] the test system is RAW264.7. Nature of the data set: Antiinflammatory activity in mouse RAW264.7 cells assessed as upregulation of LPS-induced HO-1 expression at 5 to 10 uM for 1 hrs followed by LPS stimulation for 23 hrs by Western blot analysis. It is filed as functional, cell-based. The note with it: dose 5-10 µM, time 24.0 hrs.
The test system of data set [16] is RAW264.7. The data set is described as follows: Antiinflammatory activity in mouse RAW264.7 cells assessed as inhibition of LPS-induced NFkB p65 activation at 5 to 10 uM for 1 hrs followed by LPS stimulation for 23 hrs by Western blot analysis. It counts as functional, cell-based. The note with it: dose 5-10 µM, time 24.0 hrs.
Data set [17] deals with RAW264.7. The data set is described as follows: Antiinflammatory activity in mouse RAW264.7 cells assessed as downregulation of LPS-induced ERK phosphorylation at 5 to 10 uM for 1 hrs followed by LPS stimulation for 23 hrs by Western blot analysis. It is filed as functional, cell-based. The note with it: dose 5-10 µM, time 24.0 hrs.
Data set [18] is filed under the species Danio rerio. Nature of the data set: Antiinflammatory activity in zebrafish assessed as inhibition of LPS-induced ROS production at 2.5 to 5 uM for 24 hrs by laser confocal microscope. The settings on record: dose 2.5-5 µM. It is filed as functional, organism-based.
For data set [19], the species on record is Danio rerio. The data set is described as follows: Antiinflammatory activity in zebrafish assessed as inhibition of LPS-induced NO production at 2.5 to 5 uM for 24 hrs by laser confocal microscope. It is filed as functional, organism-based. The settings on record: dose 2.5-5 µM.
Data set [20] has as its system RAW264.7. The data set is described as follows: Antiinflammatory activity in mouse RAW264.7 cells assessed as inhibition of LPS-induced IKKbeta phosphorylation at 5 to 10 uM for 1 hrs followed by LPS stimulation for 23 hrs by Western blot analysis. It is filed as functional, cell-based. The settings on record: dose 5-10 µM, time 24.0 hrs.

In the case of `C=C[C@@](C)(/C=C/c1ccc(OCc2cn(Cc3ccc(Cl)cc3)nn2)cc1)CCC=C(C)C`, the IC50 (in general, the concentration needed to halve the response being measured) at 24 h in [1] was 327 µM.
Still for that read-out and setting: then `C=C[C@@](C)(/C=C/c1ccc(OCC(=O)Nc2ccc(Cl)cc2)cc1)CCC=C(C)C`, with 50.7 µM; and `C=C[C@@](C)(/C=C/c1ccc(OC(=O)c2cc3cc(Cl)ccc3[nH]2)cc1)CCC=C(C)C`, with 110 µM.
The same measure, in the same setting: then `C=C[C@@](C)(/C=C/c1ccc(OCc2cn(-c3ccc(F)cc3)nn2)cc1)CCC=C(C)C`, with 233 µM; and `C=C[C@@](C)(/C=C/c1ccc(OC(=O)c2cc3ccccc3[nH]2)cc1)CCC=C(C)C`, with 108 µM; and `C=C[C@@](C)(/C=C/c1ccc(OC(=O)c2cn(-c3ccccc3)nn2)cc1)CCC=C(C)C`, with 69.9 µM.
Same read-out and setting: then `C=C[C@@](C)(/C=C/c1ccc(OCC(=O)NC(c2ccccc2)P(=O)(OCC)OCC)cc1)CCC=C(C)C` (stereo not given in full), with 33.4 µM.
Regarding `C=C[C@@](C)(/C=C/c1ccc(OCc2cn(-c3ccccc3)nn2)cc1)CCC=C(C)C`, the IC50 at 24 h in data set [1] turned out to be 172 µM.
Still for that read-out and setting: then `C=C[C@@](C)(/C=C/c1ccc(OCC(=O)NC(c2ccc(F)cc2)P(=O)(OCC)OCC)cc1)CCC=C(C)C` (stereo not given in full), with 110 µM; and `C=C[C@@](C)(/C=C/c1ccc(OC(=O)c2ccc3ncccc3c2)cc1)CCC=C(C)C`, with 88 µM.
As for `C=C[C@@](C)(/C=C/c1ccc(OCC(=O)Nc2ccccc2)cc1)CCC=C(C)C`, the IC50 at 24 h in [1] came to 63.3 µM.
The same measure, in the same setting: then `C=C[C@@](C)(/C=C/c1ccc(OCc2cn(-c3ccc(C)cc3)nn2)cc1)CCC=C(C)C`, with 86.9 µM.
In the case of `C=C[C@@](C)(/C=C/c1ccc(OCC(=O)N2CCCCC2)cc1)CCC=C(C)C`, in data set [1], the IC50 at 24 h came to 58.6 µM.
Same read-out and setting: then `C=C[C@@](C)(/C=C/c1ccc(OCC(=O)Nc2ccc(F)cc2)cc1)CCC=C(C)C`, with 59.1 µM.
Same read-out and setting: then `C=C[C@@](C)(/C=C/c1ccc(OCc2cn(Cc3ccc(F)cc3)nn2)cc1)CCC=C(C)C`, with 157 µM; and `C=C[C@@](C)(/C=C/c1ccc(OC(=O)c2cc3cc(OC)ccc3[nH]2)cc1)CCC=C(C)C`, with 329 µM.
Take `C=C[C@@](C)(/C=C/c1ccc(OC(=O)c2cn(-c3ccc(C)cc3)nn2)cc1)CCC=C(C)C`: the IC50 at 24 h in data set [1] amounted to 37.2 µM.
Same read-out and setting: then `C=C[C@@](C)(/C=C/c1ccc(OCc2cn(Cc3ccc(C)cc3)nn2)cc1)CCC=C(C)C`, with 371 µM.
For `C=C[C@@](C)(/C=C/c1ccc(OCC(=O)N2CCCC2)cc1)CCC=C(C)C`, the outcome with RAW264.7 [2], in the data set on RAW264.7 [3] and in the data set on RAW264.7 [17] was Active. Besides, in data set [1], the IC50 at 24 h is 40.5 µM. The inhibition result in the data set with RAW264.7 [4], in the data set on RAW264.7 [5], in the data set on RAW264.7 [6], with RAW264.7 [11], in the data set with RAW264.7 [12] and with RAW264.7 [16] was “Active” in each case. Also, the inhibition result with RAW264.7 [20] is “Active”. Also, the inhibition entry in the data set on RAW264.7 [7], in the data set with RAW264.7 [8], with RAW264.7 [9], with RAW264.7 [10], with RAW264.7 [13] and in the data set listed under Danio rerio [18] was “Dose-Dependent Effect” in each case. For the same compound, the inhibition entry in the data set listed under Danio rerio [19] is “Dose-Dependent Effect”. Also, the Activity result in the data set on RAW264.7 [14] and with RAW264.7 [15] was “Dose-Dependent Effect” throughout.
On to `C=C[C@@](C)(/C=C/c1ccc(OCC(=O)Nc2cccc3cccnc23)cc1)CCC=C(C)C`, for which the IC50 at 24 h in data set [1] worked out at 649 µM.
The same measure, in the same setting: then `C=C[C@@](C)(/C=C/c1ccc(OCc2cn(Cc3ccccc3)nn2)cc1)CCC=C(C)C`, with 480 µM; and `C=C[C@@](C)(/C=C/c1ccc(OC(=O)c2cn(-c3ccc(Cl)cc3)nn2)cc1)CCC=C(C)C`, with 115 µM.
The same measure, in the same setting: then `C=C[C@@](C)(/C=C/c1ccc(OCc2cn(-c3ccc(Cl)cc3)nn2)cc1)CCC=C(C)C`, with 47.6 µM; and `C=C[C@@](C)(/C=C/c1ccc(OC(=O)c2cn(-c3ccc(OC)cc3)nn2)cc1)CCC=C(C)C`, with 64.7 µM; and `C=C[C@@](C)(/C=C/c1ccc(OC(=O)/C=C/c2ccccc2)cc1)CCC=C(C)C`, with 157 µM.
In the case of `C=C[C@@](C)(/C=C/c1ccc(O)cc1)CCC=C(C)C` [BAKUCHIOL], in data set [1], the IC50 at 24 h is 97.2 µM.
As to `C=C[C@@](C)(/C=C/c1ccc(OCc2cn(-c3ccc(C(F)(F)F)cc3)nn2)cc1)CCC=C(C)C`, in data set [1], the IC50 at 24 h stood at 82.1 µM.
On the same count and under the same terms, then `C=C[C@@](C)(/C=C/c1ccc(OCC(=O)NC(c2ccc(C)cc2)P(=O)(OCC)OCC)cc1)CCC=C(C)C` (stereo not given in full), with 209 µM; and `C=C[C@@](C)(/C=C/c1ccc(OCc2cn(-c3ccc(OC)cc3)nn2)cc1)CCC=C(C)C`, with 47.4 µM.
The same measure, in the same setting: then `C=C[C@@](C)(/C=C/c1ccc(OC(=O)c2cn(-c3ccc(F)cc3)nn2)cc1)CCC=C(C)C`, with 79.9 µM; and `C=C[C@@](C)(/C=C/c1ccc(OCc2cn(Cc3ccc(OC)cc3)nn2)cc1)CCC=C(C)C`, with 273 µM.
